# Laboratory results as given in BigSolDB 2.1.
"solubility (mole fraction) (in n-hexane, 293.15 K)","solubility (mole fraction) (in n-hexane, 298.15 K)","solubility (mole fraction) (in n-hexane, 303.15 K)","solubility (mole fraction) (in n-hexane, 308.15 K)","solubility (mole fraction) (in n-hexane, 313.15 K)","solubility (mole fraction) (in n-octanol, 293.15 K)","solubility (mole fraction) (in n-octanol, 298.15 K)","solubility (mole fraction) (in n-octanol, 303.15 K)","solubility (mole fraction) (in n-octanol, 308.15 K)","solubility (mole fraction) (in n-octanol, 313.15 K)",SMILES
2.97e-06,3.73e-06,4.47e-06,5.47e-06,6.67e-06,0.00347,0.00431,0.00516,0.0062,0.00744,NC(=S)c1ccncc1
1.84e-05,2.22e-05,2.73e-05,3.2e-05,3.88e-05,0.00674,0.00868,0.0108,0.0133,0.016,CCc1cc(C(N)=S)ccn1
0.000199,0.000248,0.000325,0.000404,0.000518,0.00952,0.012,0.0147,0.0183,0.0222,NC(=S)c1ccccn1
